Data published in the supplement of paper PMC10307832.

How the values were obtained:
Test in all cases: relative viability (nuclei count vs DMSO), 5 days (fraction); higher = more cells survive
[1] = compound: COc1cc(-c2nn([C@H]3CC[C@H](N4CCN(C(C)=O)CC4)CC3)c3ncnc(N)c23)ccc1NC(=O)c1cc2ccccc2n1C + CC(=O)Nc1cccc(-n2c(=O)n(C3CC3)c(=O)c3c(Nc4ccc(I)cc4F)n(C)c(=O)c(C)c32)c1 [Trametinib] (partner 0.02 µM)
In short: (§1)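 Relative viability is defined as nuclei in treated wells over nuclei in vehicle wells. Duplicate plates were run and medians reported. Lung cancer cell lines in 1536-well plates were dosed by pin tool one day after seeding, with one drug or with a fixed anchor-drug dose plus five library-drug doses (not always all listed) in √10 steps, and nuclei were counted after 5 days.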

Midostaurin + Crizotinib = compound: CO[C@@H]1[C@H](N(C)C(=O)c2ccccc2)C[C@H]2O[C@]1(C)n1c3ccccc3c3c4c(c5c6ccccc6n2c5c31)C(=O)NC4 [Midostaurin] + C[C@@H](Oc1cc(-c2cnn(C3CCNCC3)c2)cnc1N)c1c(Cl)ccc(F)c1Cl [Crizotinib] (partner 1 µM)
In short: as §1

[2] = compound: COc1cc(-c2nn([C@H]3CC[C@H](N4CCN(C(C)=O)CC4)CC3)c3ncnc(N)c23)ccc1NC(=O)c1cc2ccccc2n1C + Nc1nc2[nH]cc(CCc3ccc(C(=O)N[C@@H](CCC(=O)O)C(=O)O)cc3)c2c(=O)[nH]1 [Pemetrexed] (partner 0.2 µM)
In short: as §1

Midostaurin + Foretinib = compound: CO[C@@H]1[C@H](N(C)C(=O)c2ccccc2)C[C@H]2O[C@]1(C)n1c3ccccc3c3c4c(c5c6ccccc6n2c5c31)C(=O)NC4 [Midostaurin] + COc1cc2c(Oc3ccc(NC(=O)C4(C(=O)Nc5ccc(F)cc5)CC4)cc3F)ccnc2cc1OCCCN1CCOCC1 [Foretinib] (partner 0.25 µM)
In short: as §1

[3] = compound: COc1cc(-c2nn([C@H]3CC[C@H](N4CCN(C(C)=O)CC4)CC3)c3ncnc(N)c23)ccc1NC(=O)c1cc2ccccc2n1C + CS(=O)(=O)N1CCN(Cc2cc3nc(-c4cccc5[nH]ncc45)nc(N4CCOCC4)c3s2)CC1 [Pictilisib] (partner 1 µM)
In short: as §1

Cell Line	relative viability ([1]; first compound 0.0128 µM)	relative viability ([1]; first compound 0.04048 µM)	relative viability ([1]; first compound 0.128 µM)	relative viability ([1]; first compound 1.28 µM)	relative viability (Midostaurin + Crizotinib; first compound 0.01 µM)	relative viability (Midostaurin + Crizotinib; first compound 0.03162 µM)	relative viability (Midostaurin + Crizotinib; first compound 0.1 µM)	relative viability (Midostaurin + Crizotinib; first compound 0.3162 µM)	relative viability ([2]; first compound 0.0128 µM)	relative viability ([2]; first compound 0.04048 µM)	relative viability ([2]; first compound 0.128 µM)	relative viability ([2]; first compound 1.28 µM)	relative viability (Midostaurin + Foretinib; first compound 0.01 µM)	relative viability (Midostaurin + Foretinib; first compound 0.03162 µM)	relative viability (Midostaurin + Foretinib; first compound 0.1 µM)	relative viability (Midostaurin + Foretinib; first compound 0.3162 µM)	relative viability ([3]; first compound 0.0128 µM)	relative viability ([3]; first compound 0.04048 µM)	relative viability ([3]; first compound 0.128 µM)	relative viability ([3]; first compound 1.28 µM)
HCC-366	0.309	0.281	0.305	0.179	0.504	0.505	0.445	0.522	0.141	0.24	0.208	0.232	0.932	0.957	0.81	0.75	0.09	0.129	0.161	0.141
SK-MES-1	0.563	0.4	0.539	0.279	0.966	0.929	0.931	0.94	1.08	0.994	0.904	0.755	0.927	0.925	0.963	0.781	0.343	0.402	0.361	0.221
SW 1573	0.52	0.556	0.492	0.477	0.704	1.01	0.782	0.631	0.862	0.754	0.885	0.759	1.05	0.806	1.03	1.01	0.496	0.497	0.497	0.362
NCI-H661	0.474	0.469	0.557	0.506	0.931	0.928	0.918	0.982	0.939	0.991	0.93	0.968	0.903	0.847	1.02	1.04	0.39	0.344	0.392	0.254
PC-3 [JPC-3]	0.746	0.705	0.678	0.802	0.99	0.824	0.966	0.943	0.971	1.15	1.02	1.15	1.05	0.942	1.02	0.959	0.65	0.791	0.721	0.764
NCI-H1623	–	–	–	–	–	–	–	–	–	–	–	–	0.995	0.876	0.949	0.941	–	–	–	–
Calu-6	–	–	–	–	0.685	0.768	0.859	0.617	–	–	–	–	0.879	0.921	0.89	0.835	0.916	0.893	0.826	0.76
LC-2-ad	0.956	0.536	0.895	0.895	0.469	0.428	0.485	0.483	0.304	0.277	0.243	0.275	0.919	0.897	0.914	1.04	0.606	0.009	0.455	0.311
CAL-12T	0.331	0.289	0.349	0.326	0.616	0.572	0.646	0.251	1.39	1.21	1.15	1.12	1.17	0.959	0.733	1.11	0.392	0.397	0.512	0.281
